In patent publication US5414001A, “Antineoplastic pyrrolo[4,3,2-de]quinolin-8(1H)-ones” (American Cyanamid Company, priority 1993, dated 1995):
Counter-ions that a name gives are not always drawn. Like-named read-outs stand apart in the source and are kept apart here.

Experiments:
[1] = system: DDP (Cisplatin resistant ovarian carcinoma cell line) / S (A2780); assay: SRB cytotoxicity ratio DDP/S (cisplatin resistance); assay type: cell-based, human; settings: 2880 min
[2] = system: panel of >20 human tumor cell lines; assay: In vitro tumor panel evaluation, Sulforhodamine B (SRB) cytotoxicity assay; assay type: cell-based; settings: for IC50: Homo sapiens
[3] = system: HCT15 / SKBR3; assay: SRB cytotoxicity ratio HCT15/SKBR3 (topoisomerase resistance); assay type: cell-based, human; settings: 2880 min
[4] = system: CaCo2 / CX1; settings: human, Caco-2, 48 h
Procedure: The cytotoxic activity of the pyrrolo[4,3,2-de]quinolin-8(1H)-ones against a panel of >20 human tumor cell lines is determined using the Sulforhodamine B protein dye-binding colorimetric cytotoxicity assay (SRB) described by Skehan et al. (Journal National Cancer Institute 82:1107-1112, 1990), as modified by Monks et al., (Journal National Cancer Institute 83: 757-766, 1991). […] Positive controls (i.e., etoposide) are included in every experiment. Treatments are for 48 hours, after which cells are fixed in 10% trichloroacetic acid (10% final concentration), washed five times with deionized water and stained with SRB solution (0.4% in glacial acetic acid). Protein-bound stain is solubilized with 0.1 ml tris buffer and the adsorbance values are recorded with a microplate reader. Duplicate plates of cells are fixed with trichloroacetic acid at the time of drug addition to establish To values, as described by Monks et al. (JNCl, 83: 757-766, 1991). The effect of drug treatments over the five-long range of concentrations is calculated using the formula, T--To/C--To, to determine the IC50 values.
3) The ratio values for DDP/S; CaCo2/CX1; MIP/SW620, and; HCT15/SKBR3 refer to the IC50 value for resistant cell lines included in the tumor cell panel, divided by the IC50 value for corresponding drug sensitive cell lines. For example, DDP is a Cisplatin resistant ovarian carcinoma cell line, and S is the corresponding parent drug sensitive ovarian carcinoma cell line (A2780). […] CaCo2 is a slow growing non P-glycoprotein multidrug resistant colon carcinoma cell line. MIP is a colon carcinoma cell line that expresses P-glycoprotein and is multidrug resistant; SW620 is a drug sensitive colon carcinoma cell line. HCT15 is a colon carcinoma cell line that is resistant to topoisomerase inhibitors and SKBR3 is a breast carcinoma that is very sensitive to topoisomerase inhibitors.

[5] = system: MIP / SW620; assay: SRB cytotoxicity ratio MIP/SW620 (MDR, P-glycoprotein resistance); assay type: cell-based, human; settings: 2880 min
[6] = IC50 resistant / IC50 sensitive cell line, cisplatin resistance
[7] = Mean IC50 value for all 20 cell lines, 48 hours
[8] = IC50 resistant / IC50 sensitive cell line, topoisomerase resistance
[9] = human, ddp/s ovarian carcinoma cells
[10] = Mean IC50 value for all 20 cell lines, 48 hours, read-out: AVG IC50
[11] = least sensitive cell line, 48 hours, read-out: MAX IC50
[12] = most sensitive cell line, 48 hours, read-out: MIN IC50
[13] = IC50 resistant / IC50 sensitive cell line, MDR (pglycoprotein) resistance

CaCO2/CX1 IC50 ratio [4] | Compound | DDP/S IC50 ratio [1, 6] | AVG IC50 [2, 7] | HCT15/SKBR3 IC50 ratio [3, 8] | DDP/S IC50 ratio [1, 9] | IC50 ([2]; 48 h, read-out: AVG IC50) | IC50 ([2]; 48 h, read-out: MAX IC50) | IC50 ([2]; 48 h, read-out: MIN IC50) | HCT15/SKBR3 IC50 ratio ([3]; human, hct15/skbr3 cells) | IC50 [2, 10] | IC50 [2, 11] | IC50 [2, 12] | MIP/SW620 IC50 ratio [5, 13] | MIP/SW620 IC50 ratio ([5]; human, mip/sw620 cells) | MAX IC50 ([2]; least sensitive cell line, 48 hours) | MIN IC50 ([2]; most sensitive cell line, 48 hours)
0.7 | C[N+]1=C2C(Br)=C(N)C(=O)c3[nH]c(Br)c(c32)CC1 [Example 13, 7-Amino-2,6-dibromo-1,3,4,8-tetrahydro-5-methyl-8-oxo-pyrrolo[4,3,2-de]quinolinium trifluoroacetate] | 1.1 |  | 1.7 |  |  |  |  |  | 2.4 µg/mL | 7.71 µg/mL | 0.4 µg/mL | 0.9 |  |  | 
0.8 | C[N+]1=C2C=C(N)C(=O)c3c2c(cn3Cc2cccc(Cl)c2)CC1 [Example 21, 7-Amino-1-[(3-chlorophenyl]methyl]-1,3,4,8-tetrahydro-5-methyl-8-oxo-pyrrolo[4,3,2-de]quinolinium trifluoroacetate] | 1.5 |  | 7.1 |  |  |  |  |  | 1.4 µg/mL | 4.47 µg/mL | 0.28 µg/mL | 7.0 |  |  | 
1.0 | COc1cccc(Cn2cc3c4c2C(=O)C(N)=CC4=[N+](C)CC3)c1 [Example 23, 7-Amino-1,3,4,8-tetrahydro-1-[(3-methoxyphenyl)methyl]-5-methyl-8-oxo-pyrrolo[4,3,2-de]quinolinium trifluoroacetate] | 1.2 |  | 3.8 |  |  |  |  |  | 2.1 µg/mL | 4.2 µg/mL | 0.45 µg/mL | 8.6 |  |  | 
7.3 | COC(=O)CCNC1=CC2=[N+](C)CCc3cn(Cc4ccccc4)c(c32)C1=O [Example 25, 1,3,4,8-tetrahydro-7-[(3-methoxy-3-oxopropyl)amino]-5-methyl-8-oxo-1-(phenylmethyl)pyrrolo[4,3,2-de]quinolinium trifluoroacetate] | 6.1 |  | 23.5 |  |  |  |  |  | 13 µg/mL | 50 µg/mL | 1.32 µg/mL |  |  |  | 
15.1 | COC(=O)CCNC1=CC2=[N+](C)CCc3cn(CCC(=O)OC)c(c32)C1=O [Example 27, 1,3,4,8-Tetrahydro-1-(3-methoxy-3-oxopropyl)-7-[7-[(3-methoxy-3-oxopropyl)amino]-5-methyl-8-oxo-pyrrolo[4,3,2-de]quinolinium trifluoroacetate] | 5.1 |  | 288.0 |  |  |  |  |  | 15 µg/mL | 50 µg/mL | 0.17 µg/mL |  |  |  | 
3.6 | CNC1=CC2=[N+](C)CCc3cn(C)c(c32)C1=O [Example 30, 1,3,4,8-Tetrahydro-1,5-dimethyl-7-(methylamino)-8-oxo-pyrrolo[4,3,2-de]quinolinium trifluoroacetate] | 1.1 |  | 12.7 |  |  |  |  |  | 4.5 µg/mL | 25.9 µg/mL | 0.41 µg/mL | 65.8 |  |  | 
0.6 | C=CC[N+]1=C2C=C(N)C(=O)c3c2c(cn3C)CC1 [Example 31, 7-Amino-1,3,4,8-tetrahydro-1-methyl-8-oxo-5-(2-propenyl)[4,3,2-de]quinolinium trifluoroacetate] | 1.2 |  | 2.7 |  |  |  |  |  | 1.7 µg/mL | 2.59 µg/mL | 0.34 µg/mL | 8.0 |  |  | 
8.3 | CC(C)NC1=CC2=[N+](C)CCc3c[nH]c(c32)C1=O.O=C([O-])C(F)(F)F [Example 40, 1,3,4,8-Tetrahydro-5-methyl-7-[(2-methylethyl)amino]-8-oxo-pyrrolo[4,3,2-de]quinolinium trifluoroacetate] | 1.3 | 5.8 µg/mL | 102.0 |  |  |  |  |  |  |  |  |  |  | 50 µg/mL | 0.25 µg/mL
38.0 | COc1ccc(CNC2=CC3=[N+](C)CCc4c[nH]c(c43)C2=O)cc1 [Example 48, 1,3,4,8-Tetrahydro-7-[[(4-methoxyphenyl)methyl]amino]-5-methyl-8-oxo-pyrrolo[4,3,2-de]quinolinium trifluoroacetate] | 11.0 |  | 2090.0 |  |  |  |  |  | 7.7 µg/mL | 50 µg/mL | 0.02 µg/mL |  |  |  | 
4.2 | Cc1[nH]c2c(c1C)C1=[N+](C)CCc3c[nH]c(c31)C2=O [Example 54, 3,5,6,7-Tetrahydro-1,8,9-trimethyl-6-oxo-2M-dipyrrolo[4,3,2-de:2',3'-h]quinolinium trifluoroacetate] | 1.2 |  | 3.9 |  |  |  |  |  | 18 µg/mL | 50 µg/mL | 2.26 µg/mL |  |  |  | 

The remaining lines, values behind:

Compound | CaCO2/CX1 IC50 ratio [4] | DDP/S IC50 ratio [1, 6] | AVG IC50 [2, 7] | HCT15/SKBR3 IC50 ratio [3, 8] | DDP/S IC50 ratio [1, 9] | IC50 ([2]; 48 h, read-out: AVG IC50) | IC50 ([2]; 48 h, read-out: MAX IC50) | IC50 ([2]; 48 h, read-out: MIN IC50) | HCT15/SKBR3 IC50 ratio ([3]; human, hct15/skbr3 cells) | IC50 [2, 10] | IC50 [2, 11] | IC50 [2, 12] | MIP/SW620 IC50 ratio [5, 13] | MIP/SW620 IC50 ratio ([5]; human, mip/sw620 cells) | MAX IC50 ([2]; least sensitive cell line, 48 hours) | MIN IC50 ([2]; most sensitive cell line, 48 hours)
7-(Cyclohexylamino)-1,3,4,8-tetrahydro-5-methyl-8-oxo-pyrrolo[4,3,2-de]quinolinium trifluoroacetate [Example 41] | 8.3 | 1.8 | 6.5 µg/mL | 737.0 |  |  |  |  |  |  |  |  |  |  |  | 
CC(CCC(C)NC1=CC2=[N+](C)CCc3c[nH]c(c32)C1=O)NC1=CC2=[N+](C)CCc3c[nH]c(c32)C1=O (racemic) [Example 57, 7,7'-(1,4-Dimethyl-1,4-butanediyldiimino)-bis[1,3,4,8-tetrahydro-5-methyl-8-oxo-pyrrolo[4,3,2-de]quinolinium trifluoroacetate] | 100.8 |  |  |  | 1.8 | 13 µg/mL | 50 µg/mL | 0.43 µg/mL | 32.1 |  |  |  |  |  |  | 
O=C1CC2SC3CC2(C=C1Br)C1=C(N3)C(=O)c2[nH]cc3c2C1=NCC3 (centres unmarked) [Example 9, discorhabdin A] |  |  |  |  | 1.4 |  |  |  |  |  |  |  |  |  |  | 
C[N+]1=C2C(Cl)=C(N)C(=O)c3[nH]cc(c32)CC1 [Example 10, 7-Amino-6-chloro-1,3,4,8-tetrahydro-5-methyl-8-oxo-pyrrolo[4,3,2-de]quinolinium trifluoroacetate] | 0.25 |  |  | 1.5 |  |  |  |  |  | 5.1 µg/mL | 10 µg/mL | 1.29 µg/mL | 0.7 |  |  | 
Cn1cc2c3c1C(=O)C(N)=C(Br)C3=NCC2 [Example 14, 7-Amino-6-bromo-3,4-dihydro-1-methyl-8-oxo-pyrrolo [4,3,2-de]quinolin-8 (1H) -one trifluoroacetate] | 0.8 |  |  |  | 1.2 |  |  |  | 2.1 | 2.3 µg/mL | 3.54 µg/mL | 0.84 µg/mL |  | 1.4 |  | 
Cn1cc2c3c1C(=O)C(N)=CC3=[N+](C)CC2 [Example 29, 7-Amino-1,3,4,8-tetrahydro-1,5-dimethyl-8-oxo-pyrrolo[4,3,2-de] quinolinium trifluoroacetate] | 2.9 |  |  |  |  | 2.6 µg/mL | 5.7 µg/mL | 1.03 µg/mL | 1.8 |  |  |  |  | 1.8 |  | 
Cn1cc2c3c1C(=O)C(N)=CC3=[N+](Cc1ccccc1)CC2 [Example 32, 7-Amino-1,3,4,8-tetrahydro-1-methyl-8-oxo-5-(phenylmethyl)-pyrrolo[4,3,2-de]quinolinium trifluoroacetate] | 1.8 |  |  |  |  | 2.1 µg/mL | 10 µg/mL | 0.37 µg/mL | 3.5 |  |  |  |  | 0.9 |  | 
C[N+]1=C2C=C(NCc3ccc(C(=O)O)cc3)C(=O)c3[nH]cc(c32)CC1 [Example 45, 7-[[(4-Carboxylphenyl)methyl]amino]-1,3,4,8-tetrahydro-5-methyl-8-oxo-pyrrolo[4,3,2-de]quinolinium trifluoroacetate] |  | 1.2 |  | 1.6 |  |  |  |  |  | 33 µg/mL | 50 µg/mL | 8.99 µg/mL | 1.2 |  |  | 
Cn1cc2c3c1C(=O)C(=O)C=C3NCC2.O=C(O)C(F)(F)F [Example 51, 1,3,4,5-Tetrahydro-1-methyl-pyrrolo[4,3,2-de]quinoline-7,8-dione trifluoroacetate] |  |  |  |  |  |  |  |  |  | 48 µg/mL | 50 µg/mL | 35.6 µg/mL |  |  |  | 
